Measurements reported in ChEMBL document CHEMBL1147814, “Discovery of SB-705498: a potent, selective and orally bioavailable TRPV1 antagonist suitable for clinical development” (Bioorg Med Chem Lett, 2006).
≈ marks a conversion by molar mass, not a printed value. Blank lines part the entries; values can stand above or below the molecule they belong to. Calls of active or inactive are those of the source. No cut-off for these calls is given here.

Key:
[1] = (§1) Intrinsic clearance in human liver microsomes; type: ADME, Microsome; settings: liver microsomes
[2] = target: Transient receptor potential cation channel subfamily V member 1 (Rattus norvegicus) (UniProt O35433); experiment: Antagonist activity against capsaicin-mediated activation of rat TRPV1 by FLIPR; type: functional
Chain of Transient receptor potential cation channel subfamily V member 1 (Rattus norvegicus) (O35433 whole entry): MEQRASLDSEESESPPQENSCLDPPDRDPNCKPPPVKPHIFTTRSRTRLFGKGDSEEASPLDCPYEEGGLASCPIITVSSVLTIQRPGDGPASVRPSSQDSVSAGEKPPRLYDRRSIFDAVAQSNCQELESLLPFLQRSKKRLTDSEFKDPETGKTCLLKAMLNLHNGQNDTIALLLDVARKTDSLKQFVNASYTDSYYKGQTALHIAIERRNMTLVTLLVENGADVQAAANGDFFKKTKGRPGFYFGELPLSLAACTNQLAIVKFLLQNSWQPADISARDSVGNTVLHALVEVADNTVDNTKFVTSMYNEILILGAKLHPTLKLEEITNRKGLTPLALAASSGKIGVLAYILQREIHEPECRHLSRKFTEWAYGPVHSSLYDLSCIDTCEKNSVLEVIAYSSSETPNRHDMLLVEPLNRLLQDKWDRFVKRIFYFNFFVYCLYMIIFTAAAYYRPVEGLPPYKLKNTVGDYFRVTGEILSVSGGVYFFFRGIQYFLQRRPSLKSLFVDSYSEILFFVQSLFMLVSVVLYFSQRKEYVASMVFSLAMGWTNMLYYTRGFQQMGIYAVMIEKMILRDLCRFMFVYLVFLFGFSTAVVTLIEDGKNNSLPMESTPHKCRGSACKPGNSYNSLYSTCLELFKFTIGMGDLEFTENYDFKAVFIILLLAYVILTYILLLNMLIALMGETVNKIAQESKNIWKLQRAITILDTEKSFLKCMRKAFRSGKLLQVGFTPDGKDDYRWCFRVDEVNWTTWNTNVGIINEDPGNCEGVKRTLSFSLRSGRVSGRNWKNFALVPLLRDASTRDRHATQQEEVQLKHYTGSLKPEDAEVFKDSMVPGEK

[3] = system: Liver microsomes; experiment: as §1; type: ADME, Microsome; settings: microsomes
[4] = Aqueous solubility of the compound; type: physicochemical
[5] = target: Transient receptor potential cation channel subfamily V member 1 (Homo sapiens) (UniProt Q8NER1); experiment: Blockade of heat activated human TRPV1 at 1 uM; type: functional
Chain of Transient receptor potential cation channel subfamily V member 1 (Homo sapiens) (Q8NER1 whole entry): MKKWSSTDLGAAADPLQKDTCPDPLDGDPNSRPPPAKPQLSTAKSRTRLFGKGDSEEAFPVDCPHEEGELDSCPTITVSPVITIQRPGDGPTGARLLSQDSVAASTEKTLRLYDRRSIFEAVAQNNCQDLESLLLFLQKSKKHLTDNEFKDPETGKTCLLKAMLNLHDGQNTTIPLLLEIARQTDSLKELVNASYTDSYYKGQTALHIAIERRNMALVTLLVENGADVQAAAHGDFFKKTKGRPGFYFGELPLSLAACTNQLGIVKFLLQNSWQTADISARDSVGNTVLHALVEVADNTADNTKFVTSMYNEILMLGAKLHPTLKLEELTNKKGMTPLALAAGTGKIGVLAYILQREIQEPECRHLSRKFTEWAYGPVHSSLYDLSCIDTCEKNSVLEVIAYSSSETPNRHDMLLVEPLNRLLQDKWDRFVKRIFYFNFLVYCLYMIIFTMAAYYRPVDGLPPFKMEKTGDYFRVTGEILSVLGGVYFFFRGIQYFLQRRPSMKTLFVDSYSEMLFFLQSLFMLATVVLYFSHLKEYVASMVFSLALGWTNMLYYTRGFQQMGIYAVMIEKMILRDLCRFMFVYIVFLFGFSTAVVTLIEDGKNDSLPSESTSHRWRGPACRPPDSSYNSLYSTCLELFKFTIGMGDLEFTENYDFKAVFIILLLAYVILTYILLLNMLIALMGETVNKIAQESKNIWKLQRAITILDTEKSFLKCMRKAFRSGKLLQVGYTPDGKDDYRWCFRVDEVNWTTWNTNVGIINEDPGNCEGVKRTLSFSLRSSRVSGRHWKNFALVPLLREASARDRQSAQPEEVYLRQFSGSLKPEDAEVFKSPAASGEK

[6] = target: Transient receptor potential cation channel subfamily V member 1 (Homo sapiens) (UniProt Q8NER1); experiment: Blockade of pH activated human TRPV1 at 1 uM; type: functional
[7] = target: Transient receptor potential cation channel subfamily V member 1 (Homo sapiens) (UniProt Q8NER1); experiment: Inhibition of heat-mediated activation of human TRPV1 in HEK293 cells at 1 uM by patch clamp method
[8] = target: Transient receptor potential cation channel subfamily V member 1 (Cavia porcellus) (UniProt Q6R5A3); experiment: Antagonist activity against capsaicin-mediated activation of guinea pig TRPV1 by FLIPR; type: functional
Chain of Transient receptor potential cation channel subfamily V member 1 (Cavia porcellus) (Q6R5A3 whole entry): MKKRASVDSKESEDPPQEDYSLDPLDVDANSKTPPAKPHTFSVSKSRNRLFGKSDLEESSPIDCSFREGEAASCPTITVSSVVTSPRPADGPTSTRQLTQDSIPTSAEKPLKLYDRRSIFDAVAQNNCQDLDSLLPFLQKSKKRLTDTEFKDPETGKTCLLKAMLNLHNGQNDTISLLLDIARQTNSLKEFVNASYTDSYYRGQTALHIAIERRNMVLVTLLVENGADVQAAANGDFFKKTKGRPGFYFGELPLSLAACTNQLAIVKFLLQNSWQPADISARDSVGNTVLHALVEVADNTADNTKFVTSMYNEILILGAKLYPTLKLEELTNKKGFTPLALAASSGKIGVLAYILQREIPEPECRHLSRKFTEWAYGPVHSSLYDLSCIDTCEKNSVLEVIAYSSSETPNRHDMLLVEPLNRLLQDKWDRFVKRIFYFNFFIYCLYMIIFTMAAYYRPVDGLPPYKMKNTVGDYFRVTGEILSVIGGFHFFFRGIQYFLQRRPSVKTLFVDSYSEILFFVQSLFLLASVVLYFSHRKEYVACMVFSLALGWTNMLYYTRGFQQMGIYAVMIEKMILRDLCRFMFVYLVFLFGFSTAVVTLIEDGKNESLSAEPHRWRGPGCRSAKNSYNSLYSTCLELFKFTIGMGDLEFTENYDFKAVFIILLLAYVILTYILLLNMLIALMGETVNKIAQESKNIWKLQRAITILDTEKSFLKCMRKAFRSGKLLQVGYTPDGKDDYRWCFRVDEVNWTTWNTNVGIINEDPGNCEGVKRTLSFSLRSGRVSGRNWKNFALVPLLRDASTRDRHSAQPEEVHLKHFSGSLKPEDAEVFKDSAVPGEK

[9] = species: Cavia porcellus; experiment: Intrinsic clearance in guinea pig liver microsomes; type: ADME, Microsome
[10] = species: Canis familiaris; experiment: Intrinsic clearance in dog liver microsomes; type: ADME, Canis lupus familiaris, Microsome
[11] = Clearance in rat; type: ADME, organism-based; settings: in vivo
[12] = Clearance in guinea pig; type: ADME, organism-based, Cavia porcellus; settings: in vivo
[13] = Clearance in dog; type: ADME, organism-based, Canis lupus familiaris; settings: in vivo
[14] = Volume of distribution in rat; type: ADME, organism-based; settings: in vivo, read-out: Vdss
[15] = Volume of distribution in guinea pig; type: ADME, organism-based, Cavia porcellus; settings: in vivo, read-out: Vdss
[16] = Volume of distribution in dog; type: ADME, organism-based, Canis lupus familiaris; settings: in vivo, read-out: Vdss
[17] = Half life in rat; type: ADME, organism-based; settings: in vivo
[18] = Half life in guinea pig; type: ADME, organism-based, Cavia porcellus; settings: in vivo
[19] = Half life in dog; type: ADME, organism-based, Canis lupus familiaris; settings: in vivo
[20] = Bioavailability in rat at 3 mg/kg, po; type: ADME, organism-based; settings: in vivo
[21] = Bioavailability in guinea pig at 1 mg/kg, po; type: ADME, organism-based, Cavia porcellus; settings: in vivo
[22] = Bioavailability in dog at 3 mg/kg, po; type: ADME, organism-based, Canis lupus familiaris; settings: in vivo
[23] = target: Transient receptor potential cation channel subfamily V member 1 (Cavia porcellus) (UniProt Q6R5A3); experiment: Activity against adjuvant-induced arthritis assessed as reversal of allodynia in guinea pig at 10 mg/kg, po; type: functional, organism-based; set-up: dose 10 mg/kg
[24] = Solubility in stimulated gastric fluid; type: physicochemical; settings: simulated gastric fluid
[25] = target: Transient receptor potential cation channel subfamily V member 1 (Homo sapiens) (UniProt Q8NER1); experiment: Inhibition of capsaicin-mediated activation of human TRPV1 in HEK293 cells at 1 uM by patch clamp method; type: functional, cell-based
[26] = target: Transient receptor potential cation channel subfamily V member 1 (Rattus norvegicus) (UniProt O35433); experiment: Activity against capsaicin-induced secondary hyperalgesia assessed as reversal of allodynia in rat at 10 mg/kg, po after 2 hrs; type: functional, organism-based; set-up: dose 10 mg/kg
[27] = target: Transient receptor potential cation channel subfamily V member 1 (Rattus norvegicus) (UniProt O35433); experiment: Activity against capsaicin-induced secondary hyperalgesia assessed as reversal of allodynia in rat at 30 mg/kg, po after 2 hrs; type: functional, organism-based; set-up: dose 30 mg/kg

SMILES: Cc1ccc2c(c1)CCCN2CCNC(=O)Nc1ccccc1Br
CLint scaled [1]: > 45 mL/min/kg | pKb [2]: 7.4

SMILES: Cc1cccc(N2CC[C@@H](NC(=O)Nc3ccccc3Br)C2)c1
CL [3]: <= 4 ml/min/g | solubility [4]: < 100 µg/mL | pKb [2]: 7.7 | Activity [5]: Active | Activity [6]: Active | Activity [7]: Active

SMILES: Cc1cccc2c1CCN2CCNC(=O)Nc1ccccc1Br
pKb [2]: 7.4

SMILES: O=C(NCCN1CCc2c(F)cccc21)Nc1ccccc1Br
pKb [2]: 7.4

SMILES: O=C(Nc1ccccc1Br)N[C@@H]1CCN(c2ccc(F)c(F)c2)C1
CL [3]: <= 4 ml/min/g | solubility [4]: < 100 µg/mL | pKb [2]: 8.1

SMILES: O=C(NCCN1CCc2ccccc21)Nc1ccccc1Br
pKb [2]: 6.8

SMILES: O=C(Nc1ccccc1Br)N[C@@H]1CCN(c2ncccc2C(F)(F)F)C1
pKb [2]: 7.1

SMILES: Cc1ccc(N2CC[C@@H](NC(=O)Nc3ccccc3Br)C2)cc1F
CL [3]: <= 4 ml/min/g | solubility [4]: < 100 µg/mL | pKb [2]: 8.3

SMILES: CCN(CCNC(=O)Nc1ccccc1Br)c1cccc(C)c1
CLint scaled [1]: 41 mL/min/kg | pKb [2]: 7.8

SMILES: Cc1ccc2c(c1)CCN2CCNC(=O)Nc1ccccc1Br
pKb [2]: 7.3

SMILES: O=C(NCCN1CCc2cc(F)ccc21)Nc1ccccc1Br
CLint scaled [1]: 19 mL/min/kg | pKb [2]: 7.1

Further lines, results first:

pKb [8]: 7.3 | CL [9]: 4.2 mL/min/g | CL [10]: 0.9 mL/min/g | clearance [11]: 4 mL/min/kg | clearance [12]: 34 mL/min/kg | clearance [13]: 11 mL/min/kg | Vd [14]: 0.9 L/kg | Vd [15]: 3.6 L/kg | Vd [16]: 1.9 L/kg | half-life [17]: 186 min | half-life [18]: 156 min | half-life [19]: 204 min | bioavailability [20]: 86% | bioavailability [21]: 39% | bioavailability [22]: 42% | pKb [2]: 7.5 | Activity [23]: 80% | solubility [24]: 400 µg/mL (≈ 932 µM) | inhibition [25]: 102% | Activity [5]: 97% | Activity [6]: 104% | Activity [26]: Active | Activity [27]: Active
SMILES: O=C(Nc1ccccc1Br)N[C@@H]1CCN(c2ccc(C(F)(F)F)cn2)C1 [SB-705498]

pKb [2]: 7.3
SMILES: O=C(Nc1ccccc1Br)N[C@@H]1CCN(c2ccc(Cl)cn2)C1

CL [3]: <= 4 ml/min/g | solubility [4]: < 100 µg/mL | pKb [2]: 7.8
SMILES: O=C(Nc1ccccc1Br)N[C@@H]1CCN(c2cccc(F)c2)C1

pKb [2]: 6.9
SMILES: O=C(Nc1ccccc1Br)N[C@@H]1CCN(c2cc(C(F)(F)F)ccn2)C1

pKb [2]: 7.2
SMILES: O=C(Nc1ccccc1Br)N[C@@H]1CCN(c2cccc(C(F)(F)F)n2)C1

pKb [2]: < 6.7
SMILES: Cc1ccc(N2CC[C@@H](NC(=O)Nc3ccccc3Br)C2)nc1

pKb [2]: 7.2
SMILES: O=C(Nc1ccccc1Br)N[C@@H]1CCN(c2ccc(Br)cn2)C1

pKb [2]: < 6.8
SMILES: Cc1cccc(N2CC[C@H](NC(=O)Nc3ccccc3Br)C2)c1

pKb [2]: 6.7
SMILES: N#Cc1ccc(N2CC[C@@H](NC(=O)Nc3ccccc3Br)C2)nc1

pKb [2]: < 6.6
SMILES: O=C(Nc1ccccc1Br)N[C@@H]1CCN(c2ccccn2)C1
